Values quoted from earlier work as cited in US20090252806A1, “NANOPARTICULATE TACROLIMUS FORMULATIONS” (Elan Pharma International Ltd., priority 2004, published 2009).
Where two headings read alike, the source gives them in different places.

Key:
[1] = oral
[2] = for reduction of mean AUC relative to the fasted condition / reduction of mean Cmax relative to the fasted condition: healthy volunteers (N=16)
[3] = U.S. study; average (range)
[4] = 18 fasted healthy volunteers; single oral dose of 3 mg, 7 mg, and 10 mg
[5] = 15 minutes after a high fat (400 kcal, 34% fat) breakfast, 11 liver transplant patients
[6] = administered 1.5 hours following the meal
[7] = given immediately following the meal

- absolute bioavailability ([1]; adult kidney transplant patients (N=26)): 17±10%
- absolute bioavailability ([1]; adult liver transplant patients (N=17)): 22±6%
- solubility (in chloroform): very soluble
- solubility (in ethanol): freely soluble
- solubility (in methanol): very soluble
- solubility (in water): practically insoluble
- decreased AUC as compared to a fasted state [2, 5]: 27±18%
- decreased Cmax as compared to a fasted state [2, 5]: 50±19%
- reduction of mean AUC relative to the fasted condition [2, 6]: 39%
- reduction of mean Cmax relative to the fasted condition [2, 6]: 63%
- reduction of mean AUC relative to the fasted condition [2, 7]: 39%
- reduction of mean Cmax relative to the fasted condition [2, 7]: 71%
- lengthening of Tmax ([2]; high-fat meal (848 kcal, 46% fat), 15 healthy volunteers): 5 fold
- ratio of whole blood concentration to plasma concentration [3]: 35 (range 12 to 67)
- increase of Cmax and AUC with dose [4]: dose-proportional
SMILES: C=CC[C@@H]1/C=C(\C)C[C@H](C)C[C@H](OC)[C@H]2O[C@@](O)(C(=O)C(=O)N3CCCC[C@H]3C(=O)O[C@H](/C(C)=C/[C@@H]3CC[C@@H](O)[C@H](OC)C3)[C@H](C)[C@@H](O)CC1=O)[C@H](C)C[C@@H]2OC [tacrolimus, Tacrolimus]
